Assay results: patent US11512053B2, “Arginine methyltransferase inhibitors and uses thereof” (priority 2013, dated 2022)
Read-outs that look alike come from different tables or passages of the source.

Molecular target: T1, human CARM1 (PRMT4) (Flag- and His-tagged) (Homo sapiens, UniProt Q86X55)
T1 construct: Flag-CARM1-His; made in house; host or cells: HEK 293F cells (BacMam baculovirus)
T1 sequence (Q86X55 1-585 isoform Q86X55-1): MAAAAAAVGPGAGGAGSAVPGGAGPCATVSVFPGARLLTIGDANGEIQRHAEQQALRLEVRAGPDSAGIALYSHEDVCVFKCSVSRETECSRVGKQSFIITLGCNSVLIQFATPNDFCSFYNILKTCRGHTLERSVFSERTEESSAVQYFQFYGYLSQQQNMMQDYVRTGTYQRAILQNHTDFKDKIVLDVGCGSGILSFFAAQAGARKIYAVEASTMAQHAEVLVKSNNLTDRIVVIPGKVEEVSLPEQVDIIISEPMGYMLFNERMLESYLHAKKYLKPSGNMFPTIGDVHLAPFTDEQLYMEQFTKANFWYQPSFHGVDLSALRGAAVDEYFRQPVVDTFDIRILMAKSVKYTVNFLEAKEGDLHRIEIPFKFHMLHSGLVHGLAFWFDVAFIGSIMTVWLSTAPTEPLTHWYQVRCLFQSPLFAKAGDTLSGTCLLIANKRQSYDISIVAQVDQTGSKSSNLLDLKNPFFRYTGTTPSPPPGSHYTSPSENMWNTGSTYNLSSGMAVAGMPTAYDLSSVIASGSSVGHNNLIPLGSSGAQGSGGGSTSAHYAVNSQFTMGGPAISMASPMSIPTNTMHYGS
Assay: CARM1 Biochemical Assay (3H-SAM Flashplate, peptide substrate)
Source text: General Materials. S-adenosylmethionine (SAM), S-adenosylhomocysteine (SAH), bicine, Tween20, dimethylsulfoxide (DMSO), bovine skin gelatin (BSG), sodium butyrate and Tris(2-carboxyethyl)phosphine hydrochloride solution (TCEP) were purchased from Sigma-Aldrich at the highest level of purity possible. ^3H-SAM was purchase from American Radiolabeled Chemicals with a specific activity of 80 Ci/mmol. 384-well streptavidin Flashplates were purchased from PerkinElmer.
Substrates. Peptide representative of human histone H3 residues 16-30 was synthesized with an N-terminal linker-affinity tag motif and a C-terminal amide cap by 21st Century Biochemicals. The peptide was purified by high-performance liquid chromatography (HPLC) to greater than 95% purity and confirmed by liquid chromatography mass spectrometry (LC-MS). The sequence was Biot-Ahx-[…]-amide and contained a monomethylated arginine at position 26 (SEQ ID NO.:14).
Molecular Biology: Human CARM1 (PRMT4) (NM_199141.1) transcript clone was amplified from an HEK 293 cDNA library, incorporating a flanking 5′ sequence encoding a FLAG tag ([…]) (SEQ ID NO.:6) fused directly to Ala 2 of CARM1 and 3′ sequence encoding a hexa His sequence ([…]) (SEQ ID NO.:15) fused directly to Ser 608. The gene sequence encoding isoform1 containing a deletion of amino acids 539-561 was amplified subsequently and subcloned into pFastBacMam (Viva Biotech).
Protein Expression. Recombinant baculovirus were generated according to Bac-to-Bac kit instructions (Life Technologies). […] Infections were carried out at 37° C. for 48 hours, harvested by centrifugation, and stored at −80° C. for purification.
Protein Purification. […] Column was washed with 500 mM NaCl in buffer A and Flag-CARM1-His was eluted with 200 ug/ml FLAG peptide in buffer A. Pooled fractions were dialyzed in 20 mM Tris, 150 mM NaCl, 5% glycerol and 1 mM DTT, pH 7.8. The purity of recovered protein was 94.
General Procedure for CARM1 Enzyme Assays on Peptide Substrates. The assays were all performed in a buffer consisting of 20 mM Bicine (pH=7.6), 1 mM TCEP, 0.005% BSG, and 0.002% Tween 20, prepared on the day of use. Compounds in 100% DMSO (1 ul) were spotted into a polypropylene 384-well V-bottom plates (Greiner) using a Platemate Plus outfitted with a 384-channel head (Thermo Scientific). DMSO (1 ul) was added to Columns 11, 12, 23, 24, rows A-H for the maximum signal control and 1 ul of SAH, a known product and inhibitor of CARM1, was added to columns 11, 12, 23, 24, rows I-P for the minimum signal control. A cocktail (40 ul) containing the CARM1 enzyme was added by Multidrop Combi (Thermo-Fisher). The compounds were allowed to incubate with CARM1 for 30 min at room temperature, then a cocktail (10 ul) containing ^3H-SAM and peptide was added to initiate the reaction (final volume=51 ul). The final concentrations of the components were as follows: CARM1 was 0.25 nM, ^3H-SAM was 30 nM, peptide was 250 nM, SAH in the minimum signal control wells was 1 mM, and the DMSO concentration was 2%. The assays were stopped by the addition of non-radiolabeled SAM (10 ul) to a final concentration of 300 uM, which dilutes the ^3H-SAM to a level where its incorporation into the peptide substrate is no longer detectable. 50 ul of the reaction in the 384-well polypropylene plate was then transferred to a 384-well Flashplate and the biotinylated peptides were allowed to bind to the streptavidin surface for at least 1 hour before being washed once with 0.1% Tween20 in a Biotek ELx405 plate washer. The plates were then read in a PerkinElmer TopCount plate reader to measure the quantity of ^3H-labeled peptide bound to the Flashplate surface, measured as disintegrations per minute (dpm) or alternatively, referred to as counts per minute (cpm).
Where dpm=disintegrations per minute, cmpd=signal in assay well, and min and max are the respective minimum and maximum signal controls. […]

IC50: 1.01 to 3 µM
IC50 (single experiment or average of multiple experiments): 3 µM
Structure (SMILES): CN(CCN)Cc1c[nH]nc1CCc1ccccc1 [Compound 9]
